Usually IC50 stands for the midpoint of a concentration-inhibition curve.

Structures can show the parent of a compound that is named as a salt.

One assay has as its target T1, EGFR (Homo sapiens, UniProt P00533).
T1 construct: made in house; host or cells: baculovirus expression system
The assay can be described thus: EGFR substrate phosphorylation assay (HTRF). Type of assay: biochemical. The settings on record: Method (A): Enzyme Mix incubated with compound at 20° C. for 1 hr, reaction started by adding Substrate Mix. The essentials: (§1)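 Baculovirus-expressed kinase (0.8 nM EGFR or 10 nM ErbB2 in enzyme mix) with Peptide C 0.8 μM and ATP 20 μM (substrate-mix levels), MOPS pH 7.5, MnCl2; 90 min, 20 °C, HTRF anti-phosphotyrosine. Method A adds 1 h enzyme–compound preincubation; B none. pIC50, final compound 0.00027–47.6 μM.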
In general terms: In TR-FRET formats the signal depends on donor and acceptor labels being close together.

The test system of the next assay is A375P F11s tumor cells. Put plainly: Method C: Cell Growth Inhibition Assay (CellTiter-Glo), A375P F11s. In kind it is cell-based. Conditions: Homo sapiens, 72 h, 3 days, 4-parameter fit. Here is the method: (§2) Human breast tumor cells (BT474) were cultured in RPMI (Mediatech 50-011-PB), containing 10% FBS (JRH Biosciences 12176) and 1% penicillin-streptomycin (Invitrogen 15140). Human head and neck tumor cells (HN5) were cultured in high glucose DMEM (Mediatech 50-013-PB) containing 10% FBS and 1% penicillin-streptomycin. Human colon tumor cells (Colo205) were cultured in RPMI (Mediatech 50-020-PB) containing 10% FBS and 1% penicillin-streptomycin. Human melanoma cancer cells (SK-MEL-28) were cultured in EMEM with nonessential amino acids (Mediatech 50-011-PB) containing 10% FBS, 1% sodium pyruvate (JT Baker 3354-04), and 1% penicillin-streptomycin. Human melanoma cancer cells (A375P F11s) were cultured in RPMI (Mediatech 50-020-PB) containing 10% FBS, 1% sodium pyruvate, and 1% penicillin-streptomycin. Human colon cancer cells (HT-29) were cultured in high glucose DMEM (Mediatech 50-013-PB) containing 10% FBS and 1% penicillin-streptomycin. Human melanoma cancer cells (SK-MEL-3) were cultured in McCoy's 5A (50-025-PB) containing 15% FBS, and 1% penicillin-streptomycin. All cell lines were maintained at 37° C. in a humidified 5% CO2, 95% air incubator. Cells were harvested using trypsin/EDTA (Invitrogen 25200), counted using an haemocytometer, and plated. For 96-well assays (using white full-area NUNC plates cat. #136102), cells were plated in 105 μL at the following densities (cells/well): HN5, 500; Colo205, 500; SK-MEL-28, 500; A375P-F11s, 500; HT-29, 500; SK-MEL-3, 500; and BT474, 3000. For 384-well assays (white full-area NUNC plates, cat. #781080), cells were plated in 48 μL at the following densities (cells/well): HN5, 500; Colo205, 500; SK-MEL-28, 500; A375P-F11s, 500; HT29, 500; SK-MEL-3, 500; and BT474, 2000.
(§3) The next day, compounds were diluted as follow: For 96-well assays, 13.5 μL of compound in DMSO were diluted using nine (9) serial 1:3 dilutions of 4.5 μL in 9 μL of DMSO. Medium (270 μl/well of RPMI with 10% FBS and 1% penicillin-streptomycin) was added to the plates. Aliquots (7 μl) were added to cells in the final assay giving a final DMSO concentration of 0.2%. For 384-well assays, 15 μL of compound in DMSO were diluted using nine (9) serial 1:3 dilutions of 5 μL in 10 μL of DMSO, followed by a further dilution of 5 μL of compound with 95 μL of medium, of which 2 μL were added to cells in the final assay giving a final DMSO concentration of 0.2%. Cells were incubated at 37° C., 5% CO2 for 3 days.
(§4) Total ATP was measured (as a surrogate estimate of cell number) using CellTiter-Glo® reagent (Promega G7571). Briefly, plates were removed from the incubator and allowed to equilibrate to room temperature for 30 minutes. CellTiter-Glo® (25 μL or 55 μL for 384-well or 96-well assays, respectively) reagent was added to each well and plates were shaken on an orbital plate shaker for 2 mins. Plates were incubated without shaking for a further 30 mins and read on an LJL Analyst GT reader in luminometer mode with an integration time of 0.5 seconds per well. Percent inhibition of cell growth was calculated relative to DMSO vehicle-treated control wells. Concentration of compound required to give 50% inhibition of vehicle-treated control cell growth (IC50) was interpolated using a 4-parameter fit for determining IC50 using the following equation: Y=A+((B−A)/(1+((C/X)̂D))) where X=IC50.
In general terms: ATP-based viability assays read luminescence as a measure of living cells.

Another assay concerns BT474 tumor cells. The assay can be described thus: Method C: Cell Growth Inhibition Assay (CellTiter-Glo), BT474. Conditions: Homo sapiens, BT-474, 72 h, 3 days, 4-parameter fit. In kind it is cell-based.
The subject of the next assay is Colo205 tumor cells. The assay can be described thus: Method C: Cell Growth Inhibition Assay (CellTiter-Glo), Colo205. Conditions: Homo sapiens, COLO 205, 72 h, 3 days, 4-parameter fit. In kind it is cell-based. In a few lines: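 Luminescent ATP signal (CellTiter-Glo, after 30 min room-temperature equilibration) served as a surrogate for cell number after a 3-day compound exposure at 37° C. Cells were plated at 500/well and treated with serially diluted compound at 0.2% DMSO. IC50 values are 4-parameter fits against DMSO-treated wells.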

The test system of the next assay is HT-29 tumor cells. The assay can be described thus: Method C: Cell Growth Inhibition Assay (CellTiter-Glo), HT-29. Type of assay: cell-based. Conditions: Homo sapiens, HT-29, 72 h, 3 days, 4-parameter fit. Here is the method:
as §2, §3, §4

The next assay deals with SK-MEL-28 tumor cells. The assay can be described thus: Method C: Cell Growth Inhibition Assay (CellTiter-Glo), SK-MEL-28. In kind it is cell-based. Conditions: Homo sapiens, SK-MEL-28, 72 h, 3 days, 4-parameter fit. The essentials:
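Plating at 500 cells/well is followed the next day by addition of compound as a 1:3 serial dilution series. After 3 days' incubation, CellTiter-Glo luminescence is read and IC50 is calculated versus DMSO wells.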

Another assay deals with SK-MEL-3 tumor cells. The assay can be described thus: Method C: Cell Growth Inhibition Assay (CellTiter-Glo), SK-MEL-3. In kind it is cell-based. The settings on record: Homo sapiens, SK-MEL3, 72 h, 3 days, 4-parameter fit. As for the experimental part:
as §2, §3, §4

The next assay deals with HN5 tumor cells. Put plainly: Method C: Cell Growth Inhibition Assay (CellTiter-Glo), HN5. The settings on record: Homo sapiens, 72 h, 3 days, 4-parameter fit. In kind it is cell-based. As for the experimental part:
as §2, §3, §4

For another assay, the target named is T2, ErbB2 (Homo sapiens, UniProt P04626).
T2 construct: made in house; host or cells: baculovirus expression system
T2 sequence (P04626 23-1255): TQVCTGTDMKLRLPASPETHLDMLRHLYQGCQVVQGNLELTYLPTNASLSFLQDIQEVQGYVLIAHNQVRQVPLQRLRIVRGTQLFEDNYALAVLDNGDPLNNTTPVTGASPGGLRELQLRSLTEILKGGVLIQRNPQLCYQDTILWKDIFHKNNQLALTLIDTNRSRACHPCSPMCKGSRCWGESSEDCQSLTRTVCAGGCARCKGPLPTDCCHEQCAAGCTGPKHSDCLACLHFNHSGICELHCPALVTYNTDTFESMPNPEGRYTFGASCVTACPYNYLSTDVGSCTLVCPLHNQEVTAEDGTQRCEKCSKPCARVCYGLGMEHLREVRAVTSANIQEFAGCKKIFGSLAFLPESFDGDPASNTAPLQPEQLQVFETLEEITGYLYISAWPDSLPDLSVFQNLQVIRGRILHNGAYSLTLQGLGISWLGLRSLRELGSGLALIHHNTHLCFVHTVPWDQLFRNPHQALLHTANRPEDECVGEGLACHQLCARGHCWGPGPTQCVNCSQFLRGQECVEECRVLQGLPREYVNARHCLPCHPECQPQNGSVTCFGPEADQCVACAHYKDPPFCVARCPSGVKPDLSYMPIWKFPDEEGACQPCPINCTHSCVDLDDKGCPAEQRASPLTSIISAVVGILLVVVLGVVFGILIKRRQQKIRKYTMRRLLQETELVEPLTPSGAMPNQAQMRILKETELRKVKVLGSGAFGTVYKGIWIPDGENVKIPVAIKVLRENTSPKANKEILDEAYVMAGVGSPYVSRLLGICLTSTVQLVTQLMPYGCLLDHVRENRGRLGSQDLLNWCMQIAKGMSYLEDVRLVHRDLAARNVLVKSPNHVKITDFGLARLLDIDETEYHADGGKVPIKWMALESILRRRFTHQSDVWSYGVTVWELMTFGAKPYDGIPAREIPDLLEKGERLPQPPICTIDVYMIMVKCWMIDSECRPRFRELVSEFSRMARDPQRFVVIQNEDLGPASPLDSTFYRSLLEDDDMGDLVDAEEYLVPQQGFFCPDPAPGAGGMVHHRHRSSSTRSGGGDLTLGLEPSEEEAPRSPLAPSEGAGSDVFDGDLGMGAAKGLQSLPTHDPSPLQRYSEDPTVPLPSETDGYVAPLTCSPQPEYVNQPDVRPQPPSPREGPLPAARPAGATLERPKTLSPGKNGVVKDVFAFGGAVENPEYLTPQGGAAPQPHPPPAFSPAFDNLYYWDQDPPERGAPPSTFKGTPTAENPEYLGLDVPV
The assay can be described thus: ErbB-2 substrate phosphorylation assay (HTRF). Type of assay: biochemical. Conditions: Method (A): Enzyme Mix incubated with compound at 20° C. for 1 hr, reaction started by adding Substrate Mix. In a few lines: as §1

T1 sequence (P00533 25-1210): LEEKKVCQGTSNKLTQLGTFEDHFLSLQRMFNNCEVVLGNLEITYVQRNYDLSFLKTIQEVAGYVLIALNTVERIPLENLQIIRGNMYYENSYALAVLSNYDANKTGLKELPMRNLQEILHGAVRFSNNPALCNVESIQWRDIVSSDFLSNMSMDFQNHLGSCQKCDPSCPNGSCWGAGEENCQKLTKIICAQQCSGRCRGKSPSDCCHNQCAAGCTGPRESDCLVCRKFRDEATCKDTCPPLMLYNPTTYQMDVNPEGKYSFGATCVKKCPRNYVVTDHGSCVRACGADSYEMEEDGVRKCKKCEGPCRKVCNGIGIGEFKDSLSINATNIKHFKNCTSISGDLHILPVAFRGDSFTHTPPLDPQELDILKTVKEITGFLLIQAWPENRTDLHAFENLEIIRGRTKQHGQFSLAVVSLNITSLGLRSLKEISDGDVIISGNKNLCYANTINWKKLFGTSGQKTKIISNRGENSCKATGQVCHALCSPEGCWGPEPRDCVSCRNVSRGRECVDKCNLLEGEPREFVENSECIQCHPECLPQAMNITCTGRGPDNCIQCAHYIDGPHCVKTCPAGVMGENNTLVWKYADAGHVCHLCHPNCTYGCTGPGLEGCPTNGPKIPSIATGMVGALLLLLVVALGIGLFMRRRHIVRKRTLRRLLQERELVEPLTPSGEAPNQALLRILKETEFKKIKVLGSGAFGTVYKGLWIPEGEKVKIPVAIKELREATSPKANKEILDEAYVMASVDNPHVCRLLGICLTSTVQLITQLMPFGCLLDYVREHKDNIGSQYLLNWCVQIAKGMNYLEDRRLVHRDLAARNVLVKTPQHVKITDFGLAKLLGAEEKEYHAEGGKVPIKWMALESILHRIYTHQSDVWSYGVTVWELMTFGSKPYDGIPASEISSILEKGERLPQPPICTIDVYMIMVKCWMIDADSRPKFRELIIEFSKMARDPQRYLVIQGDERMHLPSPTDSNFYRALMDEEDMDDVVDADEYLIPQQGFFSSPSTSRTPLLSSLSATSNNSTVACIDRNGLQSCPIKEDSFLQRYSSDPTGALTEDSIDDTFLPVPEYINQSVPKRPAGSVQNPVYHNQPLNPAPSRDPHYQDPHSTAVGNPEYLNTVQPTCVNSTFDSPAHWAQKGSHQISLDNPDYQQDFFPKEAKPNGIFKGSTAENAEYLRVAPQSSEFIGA

Regarding `NS(=O)(=O)CCc1cccc(Nc2nccc(-c3scnc3-c3cccc(NC(=O)c4c(F)cccc4F)c3)n2)c1` [Example 95, N-(3-{5-[2-({3-[2-(Aminosulfonyl)ethyl]phenyl}amino)-4-pyrimidinyl]-1,3-thiazol-4-yl}phenyl)-2,6-difluorobenzamide], the IC50 at EGFR is under 100 nM; in the assay on A375P F11s tumor cells, 100 to 1000 nM; with BT474 tumor cells, under 100 nM; in the assay with Colo205 tumor cells, over 1000 nM; in the assay with HT-29 tumor cells, 100 to 1000 nM; with SK-MEL-28 tumor cells, over 1000 nM. For the same molecule, the IC50 in the assay with SK-MEL-3 tumor cells was over 1000 nM; in the assay on HN5 tumor cells it was under 100 nM; on ErbB2, under 100 nM.

With `CN1CCc2ccc(Nc3nccc(-c4sc(C5CCNCC5)nc4-c4cccc(NC(=O)c5c(F)cccc5F)c4)n3)cc2C1` [Example 124, 2,6-Difluoro-N-{3-[5-{2-[(2-methyl-1,2,3,4-tetrahydro-7-isoquinolinyl)amino]-4-pyrimidinyl}-2-(4-piperidinyl)-1,3-thiazol-4-yl]phenyl}benzamide], the IC50 at EGFR was under 100 nM; in the assay with A375P F11s tumor cells, over 1000 nM; in the assay on BT474 tumor cells, 100 to 1000 nM; in the assay with Colo205 tumor cells it was 100 to 1000 nM; in the assay with HT-29 tumor cells, over 1000 nM; in the assay with SK-MEL-28 tumor cells, over 1000 nM. For the same molecule, the IC50 in the assay on SK-MEL-3 tumor cells was over 1000 nM; in the assay on HN5 tumor cells it was 100 to 1000 nM; on ErbB2, under 100 nM.

`CN(C)CCOc1ccc(Nc2nccc(-c3sc(NCCCN4CCOCC4)nc3-c3cccc(NC(=O)c4c(F)cccc4F)c3)n2)cc1Cl` [Example 4, N-[3-(5-{2-[(3-Chloro-4-{[2-(dimethylamino)ethyl]oxy}phenyl)-amino]-4-pyrimidinyl}-2-{[3-(4-morpholinyl)propyl]amino}-1,3-thiazol-44)phenyl]-2,6-difluorobenzamide]: the IC50 at EGFR was under 100 nM; in the assay on A375P F11s tumor cells, 100 to 1000 nM; in the assay with BT474 tumor cells it was 100 to 1000 nM; in the assay on Colo205 tumor cells, 100 to 1000 nM; in the assay with HT-29 tumor cells, 100 to 1000 nM; in the assay on SK-MEL-28 tumor cells, 100 to 1000 nM. Besides, the IC50 is 100 to 1000 nM in the assay with SK-MEL-3 tumor cells, 100 to 1000 nM in the assay on HN5 tumor cells and under 100 nM on ErbB2.

Take `CCN(CC)CCOc1cccc(Nc2nccc(-c3sc(N)nc3-c3cccc(NC(=O)c4c(F)cccc4F)c3)n2)c1` [Example 17, N-(3-{2-Amino-5-[2-({3-[2-(diethylamino)ethoxy]phenyl}amino)pyrimidiN-4-yl]-1,3-thiazol-4-yl}phenyl)-2,6-difluorobenzamide]: the IC50 on EGFR is under 100 nM; with A375P F11s tumor cells, 100 to 1000 nM; in the assay on BT474 tumor cells, under 100 nM; in the assay with Colo205 tumor cells, 100 to 1000 nM; with HT-29 tumor cells, 100 to 1000 nM; in the assay on SK-MEL-28 tumor cells, over 1000 nM. In addition, the results for the IC50 with SK-MEL-3 tumor cells, with HN5 tumor cells and on ErbB2 were over 1000 nM, under 100 nM and under 100 nM, respectively.

Consider `CN(C)CCOc1cccc(Nc2nccc(-c3scnc3-c3cccc(NC(=O)c4cc(F)ccc4F)c3)n2)c1` [Example 96, N-[3-(5-{2-[(3-{[2-(Dimethylamino)ethyl]oxy}phenyl)amino]-4-pyrimidinyl}-1,3-thiazol-4-yl)phenyl]-2,5-difluorobenzamide], for which the IC50 at EGFR is under 100 nM; in the assay on BT474 tumor cells it was 100 to 1000 nM; in the assay on Colo205 tumor cells, over 1000 nM; in the assay with SK-MEL-28 tumor cells, over 1000 nM; with HN5 tumor cells, under 100 nM; on ErbB2, under 100 nM.

For `CN(C)CCOc1ccc(Nc2nccc(-c3sc(-c4ccc(O)cc4)nc3-c3cccc(NC(=O)c4cc(F)ccc4F)c3)n2)cc1Cl` [Example 140, N-{3-[5-{2-[(3-Chloro-4-{[2-(dimethylamino)ethyl]oxy}phenyl)amino]-4-pyrimidinyl}-2-(4-hydroxyphenyl)-1,3-thiazol-4-yl]phenyl}-2,5-difluorobenzamide], the IC50 is under 100 nM on EGFR; 100 to 1000 nM with BT474 tumor cells; 100 to 1000 nM in the assay on Colo205 tumor cells; 100 to 1000 nM in the assay on SK-MEL-28 tumor cells; 100 to 1000 nM in the assay with HN5 tumor cells; under 100 nM on ErbB2.

Turning to `CCc1nc(-c2cccc(NC(=O)c3c(F)cccc3F)c2)c(-c2ccnc(Nc3ccc(N4CCOCC4)nc3)n2)s1` [Example 118, N-{3-[2-Ethyl-5-(2-{[6-(4-morpholinyl)-3-pyridinyl]amino}-4-pyrimidinyl)-1,3-thiazol-4-yl]phenyl}-2,6-difluorobenzamide trifluoroacetate], the IC50 in the assay on A375P F11s tumor cells is over 1000 nM; in the assay with BT474 tumor cells, 100 to 1000 nM; in the assay with Colo205 tumor cells it was over 1000 nM; with HT-29 tumor cells, over 1000 nM; with SK-MEL-28 tumor cells, over 1000 nM; in the assay with SK-MEL-3 tumor cells it was over 1000 nM. In the assay with HN5 tumor cells, this molecule came in with an IC50 of 100 to 1000 nM.

As for `CN(C)CCOc1cccc(Nc2nccc(-c3sc(NCCCN4CCOCC4)nc3-c3cccc(NC(=O)c4c(F)cccc4F)c3)n2)c1` [Example 29, N-[3-(5-{2-[(3-{[2-(Dimethylamino)ethyl]oxy}phenyl)amino]-4-pyrimidinyl}-2-{[3-(4-morpholinyl)propyl]amino}-1,3-thiazol-4-yl)phenyl]-2,6-difluorobenzamide], the IC50 on EGFR was under 100 nM; with BT474 tumor cells it was under 100 nM; in the assay with Colo205 tumor cells, 100 to 1000 nM; in the assay on SK-MEL-28 tumor cells, over 1000 nM; with HN5 tumor cells, under 100 nM; on ErbB2, under 100 nM.

As to `CN(C)CCOc1cccc(Nc2nccc(-c3sc(N4CCCCC4)nc3-c3cccc(NC(=O)c4c(F)cccc4F)c3)n2)c1` [Example 74, N-{3-[5-{2-[(3-{[2-(Dimethylamino)ethyl]oxy}phenyl)amino]-4-pyrimidinyl}-2-(1-piperidinyl)-1,3-thiazol-4-yl]phenyl}-2,6-difluorobenzamide], the IC50 on EGFR was under 100 nM; in the assay on A375P F11s tumor cells, 100 to 1000 nM; in the assay with BT474 tumor cells, 100 to 1000 nM; with Colo205 tumor cells, 100 to 1000 nM; in the assay on HT-29 tumor cells it was 100 to 1000 nM; with SK-MEL-28 tumor cells it was over 1000 nM. Also, the IC50 is over 1000 nM with SK-MEL-3 tumor cells and under 100 nM on ErbB2.

(Values after US20110098296A1, “Thiazole And Oxazole Kinase Inhibitors” (priority 2007, published 2011).)
